Laboratory results taken from patent US20240368181A1, “QUINOXALINE DERIVATIVES AND USES THEREOF” (Black Diamond Therapeutics, Inc., priority 2021, published 2024).

Legend:
Format in all cases: cell-based
[1] = test system: DMS-114 (FGFR1 overexpression) cells; assay: Cell proliferation assay (CellTiterGlo), DMS-114 cells; conditions: Homo sapiens, 72 hours, inhibition of cell growth, intracellular ATP (CellTiterGlo)
Text: (§1) The following is a non-limiting example that describes a cell proliferation assay used to determine the biological activity of the compounds of the present disclosure. More specifically, the assay as used to assess the ability of the compounds to inhibit cell proliferation.
(§2) Briefly, SNU-16 (FGFR2-amplification) cells, were resuspended at 18,520c/ml mL in RPMI containing 10% Heat Inactivated FBS, 1% L-glutamine and dispensed in duplicate (463c/well) into 384 well plates. UM-UC-14 (FGFR3-S249C) cells were resuspended at 40.000c/ml mL in RPMI containing 10% Heat Inactivated FBS, 1% L-glutamine and dispensed in duplicate (1000c/well) into 384 well plates. DMS-114 (FGFR1 overexpression) cells and were resuspended at 40,000c/ml mL in RPMI containing 10% Heat Inactivated FBS, 1% L-glutamine and dispensed in duplicate (1000c/well) into 384 well plates. RT-112 (FGFR3-Tacc3 fusion) cells were resuspended at 40,000c/ml mL in RPMI containing 10% Heat Inactivated FBS, 1% L-glutamine and dispensed in duplicate (1000c/well) into 384 well plates. To determine the effect of the compounds of the present disclosure on cell proliferation, SNU-16, UM-UC-14, DMS-114 and RT112 cells were incubated for 72 hours in the presence of vehicle control (DMSO) or a compound of the present disclosure at varying concentrations. Inhibition of cell growth was subsequently determined by luminescent quantification (Envision by Perkin Elmer) of intracellular ATP content using CellTiterGlo (Promega), according to the protocol provided by the manufacturer. To determine the IC50 values, the vehicle-treated cells were normalized as viable cells and analyzed using the CDD Vault software (Collaborative Drug Discovery, Burlingame, CA).

[2] = test system: UM-UC-14 (FGFR3-S249C) cells; assay: Cell proliferation assay (CellTiterGlo), UM-UC-14 cells; conditions: UMUC14, 72 h, inhibition of cell growth, intracellular ATP (CellTiterGlo)
Text: as §1, §2

[3] = test system: RT-112 (FGFR3-Tacc3 fusion) cells; assay: Cell proliferation assay (CellTiterGlo), RT-112 cells; conditions: Homo sapiens, RT-112, 72 h, RT112 cells, inhibition of cell growth, intracellular ATP (CellTiterGlo)
Text: as §1, §2

[4] = test system: SNU-16 (FGFR2-amplification) cells; assay: Cell proliferation assay (CellTiterGlo), SNU-16 cells; conditions: Homo sapiens, SNU-16, 72 h, inhibition of cell growth, intracellular ATP (CellTiterGlo)
Text: as §1, §2

Compound | IC50 [4] [nM] | IC50 [1] [nM] | IC50 [2] [nM] | IC50 [3] [nM]
Cc1nc2cc(Oc3ccc4ncc(-c5cnn(CC6CCOCC6)c5)nc4c3)ccc2[nH]1 [Compound 62] | 20 to 100 | ≥ 400 | 100 to 400 | 20 to 100
Cc1cn2ccc(Oc3ccc4ncc(-c5cnn(CC6CCN(C)CC6)c5)nc4c3Cl)cc2n1 [Compound 63] | 100 to 400 | ≥ 400 | ≥ 400 | 100 to 400
Cc1ccc2ccc(Oc3ccc4ncc(-c5cnn(CC6CCN(C)CC6)c5)nc4c3Cl)cc2n1 [Compound 65] | ≥ 400 | ≥ 400 | ≥ 400 | ≥ 400
Cc1nc2ccc(Oc3ccc4ncc(-c5cnn(CC6(O)CC6)c5)nc4c3Cl)cc2[nH]1 [Compound 67] | 20 to 100 | ≥ 400 | 20 to 100 | 20 to 100
Cc1nc2ccc(Oc3ccc4ncc(-c5cnn(CC6CC(F)(F)C6)c5)nc4c3Cl)c(F)c2[nH]1 [Compound 68] | 20 to 100 | ≥ 400 | 20 to 100 | 20 to 100

The next lines start with results.

IC50 [4] [nM] | Compound | IC50 [1] [nM] | IC50 [2] [nM] | IC50 [3] [nM]
100 to 400 | Cc1nc2ccc(Oc3ccc4ncc(-c5cc(CC6CCN(C)CC6)no5)nc4c3Cl)cc2[nH]1 [Compound 64] | ≥ 400 | 100 to 400 | 100 to 400
100 to 400 | Cc1nc2ccc(Oc3ccc4ncc(-c5cnn(C6CCC(F)(F)CC6)c5)nc4c3Cl)cc2[nH]1 [Compound 66] | ≥ 400 | 100 to 400 | 100 to 400
